Data taken from patent US12017976B1, “1-(4-carbonoimidoylphenoxy)-3-{4-[(e)-(phenylimino)methyl]phenoxy }propan-2-ol as an eco-friendly insecticidal agent against Spodoptera littoralis (boisd.)” (KING FAISAL UNIVERSITY, priority 2024, dated 2024).
Values after ≈ are worked out from the molar mass of the structure shown.

Key:
aquatic insects = details: highly toxic / very highly toxic classification; cited from earlier work
[1] = test system: Spodoptera littoralis larvae (2nd and 4th instar); assay: Insecticidal leaf dip bioassay on larvae of the laboratory strain of cotton leafworm
Protocol: Five concentrations (200, 100, 50, 25, 12.5 ppm) were designed for this synthetic compound and the reference fenoxycarb's compound as the dynamic ingredients based on ppm via diluting the commercial formulation.
In this experiment, the synthetic compound was tested for its insecticidal bioactivity using the industry-standard leaf dip bioassay techniques. […] Until usage, the stocks were kept in a refrigerator. The target substance test results were noted & the concentrations needed to destroy 50% (LC50) of S. littoralis larvae were calculated. The target compound was employed in five different concentrations, & 0.1% Tween 80 was employed as a surfactant. Castor bean leaf discs (nine centimeters in diameter) were dipped in the concentration under test for ten seconds, then fed to 2th & 4th larvae, which were roughly the same size and housed in glass jars (five pound). Each action carried out 3 times with ten larvae each. The mortality equalized via Abbott's formula. […] The mortality results of larval insect were estimated through employing probit analysis through a statistics (LDP-line) equation which estimate the LC50 values with 95% fiducially limits of lower, upper confidence limit and slope.

CCc1ccc(C(=O)NN(C(=O)c2cc(C)cc(C)c2)C(C)(C)C)cc1 [tebufenozide]
LC50 for aquatic insects (aquatic insects): 100 to 1000 µg/mL

CCOC(=O)NCCOc1ccc(Oc2ccccc2)cc1 [fenoxycarb]
Toxicity index %, 2nd instar larvae ([1]; 2nd instar larvae, 72 hours, fenoxycarb's LC50 / compound's LC50): 100% | Toxicity index %, 4th instar larvae ([1]; 4th instar larvae, 72 hours, fenoxycarb's LC50 / compound's LC50): 100% | LC50 ([1]; Spodoptera littoralis, in Gossypium hirsutum, foliar, read-out: LC50 against Spodoptera littoralis): 5.94 µg/mL (≈ 19.7 µM)
